How the values were obtained:
[1] = target: T1, Dictyostelium NDP Kinase N119S (Dictyostelium discoideum, UniProt P22887, N119S); assay: Pre-steady-state fluorescence stopped-flow phosphotransfer from nucleoside triphosphates, N119S Dd-NDPK; assay type: biochemical; conditions: for times faster reaction with the N119S enzyme than wild type: from Table I; for k2/Ks N119S (catalytic efficiency of phosphotransfer): pre-steady state, stopped-flow, average of three determinations
T1 construct: made in house
Protocol: (§1) All numbers in italics have already been published (Schneider, 1998, 2000) The kinetic constants were measured at the pre-steady-state level using a fluorescence stopped-flow device. The binding constants were determined at equilibrium by recording the increase in fluorescence (Schneider, 2000). Values are the average of three independent determinations.
(§2) As the diphosphate form of analogs were not always available, the triphosphate analogs were used to study phosphate transfer in reaction as in Scheme I. Experiments were performed with an Hi-Tech DX2 microvolume stopped-flow reaction (Schneider, 1998) at Aexc=296 nm (for Ado derivatives) or […] (for other nucleotides), 2 mm excitation slit and a 320 nm cutoff filter at the emission. After mixing NDPK (1 μM) and NTP or an analogTP (10-500 μM), the intrinsic protein fluorescence was recorded for 10-200 sec. In each experiment, 400 pairs of data were recorded, and the data from 3-4 identical experiments were averaged and fitted to a number of non-linear analytical equations using the software provided by Hi-Tech. All curves fitted to single exponentials.
(§3) The data were analyzed using the reaction scheme: [drawing 1]
(§4) In both the forward and the reverse reactions, the product concentration remains very low, thus the product binding can be neglected, and the observed single step could be attributed to the phosphotransfer (Schneider, 1998). The rate of this observed single step is: [formula]
and reaches a limiting value (k+2) at NTP saturation. Saturation could not be obtained with the concentrations of any NTP used here. Therefore, catalytic efficiencies of phosphorylation (CEphos=k+2/(k−1/k+1)=k+2/KS) were measured, which are equivalent to second order constants and allow a reliable comparison of a variety of NDP kinase substrates.

[2] = target: T2, Inactive-N119S Dd-NDPK (EI-N119S) (Dictyostelium discoideum, UniProt P22887, F64W/H122G/N119S); assay: Equilibrium fluorescence titration of nucleotide binding, inactive Dd-NDPK variant with N119S; conditions: relative affinity of NTP for both enzymes
T2 construct: made in house
Protocol: as §1
In contrast to what is observed with natural nucleotides, the Ser mutation specifically improves the catalytic efficiency with nucleotides analogs as shown in Table I; ddGTPs and AZT-TP react, respectively, 1.5 and 4 times faster with the N119S enzyme. […] Analog binding affinity was measured using a variant of Dd-NDPK (EI) as described (Schneider, 2000). This mutant (H122G-F64W) lacks the catalytic histidine, and a tryptophan replaces the phenylalanine stacking on the base in the active site (Schneider, 2000). The mutation N119S was inserted in EI in order to measure the nucleotide affinity by fluorescence titration. The Ser contribution to the binding was evaluated from the relative affinity of NTP for both enzymes (Table I).
for N119S, N119T and N119Y mutations, respectively. Altered bases as compared to the wild type sequence are underlined in bold. Sequences were checked by automatic sequencing. The mutant EI-N119S was obtained by mutation of the previously described F64W-H122G mutated NDP kinase (here called EI) (Schneider 2000).

[3] = target: T3, Dictyostelium discoideum NDP kinase inactive variant EI (H122G-F64W) (Dictyostelium discoideum, UniProt P22887, F64W/H122G); assay: biochemical; assay type: binding
T3 construct: made in house
Protocol: (§5) The binding constants were determined at equilibrium by recording the increase in fluorescence (Schneider, 2000).
(§6) Analog binding affinity was measured using a variant of Dd-NDPK (EI) as described (Schneider, 2000). […] The mutation N119S was inserted in EI in order to measure the nucleotide affinity by fluorescence titration.
(§7) Altered bases as compared to the wild type sequence are underlined in bold. Sequences were checked by automatic sequencing. The mutant EI-N119S was obtained by mutation of the previously described F64W-H122G mutated NDP kinase (here called EI) (Schneider 2000).

[4] = target: T4, Dictyostelium discoideum NDP kinase inactive variant EI-N119S (H122G-F64W-N119S) (Dictyostelium discoideum, UniProt P22887, F64W/H122G/N119S); assay: biochemical; assay type: binding; conditions: for increase of affinity by Ser (N119S): relative KD, EI versus EI-N119S
T4 construct: made in house
Protocol: as §5, §6, §7

[5] = target: T5, human NDP kinase A (NDPK-A, nm23-H1), wild type (Homo sapiens, UniProt P15531); assay: Pre-steady-state phosphotransfer, fluorescence stopped-flow; assay type: biochemical; conditions: catalytic efficiency of phosphotransfer, NDPK-A, pre-steady state
T5 construct: made in house
Protocol: FIG. 3 depicts the catalytic efficiency of NDPK-A and mutants for nucleoside analogs. The rates of phosphorylation of pure recombinant NDP kinases (1 μM) were measured at the pre-steady state in a fluorescence stopped-flow with d4T-TP (10 to 80 μM). The catalytic efficiency (expressed in M^−1s^−1) was determined from the variation of the rate as a function of analog as shown in FIG. 2 (▾, NDPK-A, ♦ L55H, ● N115S, ▪ L55H-N115S).
The activity assays were performed at the pre-steady state level.
Wild type human NDPK-A and the mutants were expressed and purified according to Schneider et al., 2000, Mol Pharm. Recombinant wild type and mutant Dd-NDPK were obtained as described (Schneid, 1998a), except for N119Y NDP kinase which was partially purified by Q sepharose FF chromatography. Each protein was characterized by […] electrophoresis. The concentration of 17 kDa subunits of the enzyme was either determined by Bradford assay ([…]) or using an absorbance coefficient of ΔA^280=1.249 for a 1 mg/mL solution of human wild type and N115S NDPK-A, and =0.55 for wild type and mutant N119S, N119T Dd-NDP kinases, respectively.
as §2, with “Hi-Tech.” for “Hi-Tech. All curves fitted to single exponentials.”
as §3, §4
and reaches a limiting value (k+2) at NTP saturation. […] Therefore, catalytic efficiencies of phosphorylation (CEphos=k+2/(k−1/k+1)=k+2/KS) were measured, which are equivalent to second order constants and allow a reliable comparison of a variety of NDP kinase substrates.

T4 sequence (P22887 whole entry F64W/N119S/H122G): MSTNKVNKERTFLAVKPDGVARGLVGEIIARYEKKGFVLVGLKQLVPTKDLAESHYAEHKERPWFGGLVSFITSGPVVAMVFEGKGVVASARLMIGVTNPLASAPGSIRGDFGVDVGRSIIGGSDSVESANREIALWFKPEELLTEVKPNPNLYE
T1 sequence (P22887 whole entry N119S): as the sequence (P22887 whole entry F64W/N119S/H122G) above, with W64F, G122H counted along it
T3 sequence (P22887 whole entry F64W/H122G): as the sequence (P22887 whole entry F64W/N119S/H122G) above, with S119N counted along it
T2 sequence (P22887 whole entry F64W/N119S/H122G): as the sequence (P22887 whole entry F64W/N119S/H122G) above
T5 sequence (P15531 whole entry): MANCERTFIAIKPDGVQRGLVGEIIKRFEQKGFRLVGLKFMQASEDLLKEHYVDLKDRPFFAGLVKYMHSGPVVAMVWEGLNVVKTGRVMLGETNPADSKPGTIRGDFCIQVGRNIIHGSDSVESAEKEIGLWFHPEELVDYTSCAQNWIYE

Row | SMILES | times faster reaction with the N119S enzyme than wild type [1] [times] | k2/Ks N119S (catalytic efficiency of phosphotransfer) [1] [M⁻¹ s⁻¹] | factor by which Ser 119 reinforces affinity (EI-N119S versus EI) [2] [fold] | Kd [3] [µM] | Kd [4] [µM] | increase of affinity by Ser (N119S) [4] [fold] | k2/Ks [5] [M⁻¹ s⁻¹]
1 | Cc1cn([C@H]2C[C@H](N=[N+]=[N-])[C@@H](COP(=O)(O)OP(=O)(O)OP(=O)(O)O)O2)c(=O)[nH]c1=O [AZT-TP] | 4 | 1100 | 15 | 30 | 2.2 | 15 | 75
2 | Nc1nc2c(ncn2[C@H]2CC[C@@H](COP(=O)(O)OP(=O)(O)OP(=O)(O)O)O2)c(=O)[nH]1 [ddGTP, dideoxy-GTP] | 1.5 | 3500 | 2 | 3.5 | 2 | 2 | 190

Source: patent US20030207830A1, “Mutant NDP kinases for antiviral nucleotide analog activation and therapeutic uses thereof” (priority 2002, published 2003)
